# Test system: P388
# Assay: Cytotoxicity against mouse P388 cells
# Assay type: functional
# Settings: read-out: ED50 (the source's name)
row,Compound,EC50 [µg/mL]
1,O=c1[nH]cc(F)c(=O)[nH]1 [FLUOROURACIL],0.073
2,CCCCCC[C@@H](C)/C=C(C)/C=C/C(N)=O [GYMNAMIDE],> 10
3,CCCCCC[C@@H](C)/C=C(C)/C=C/C(=O)N[C@H]1C[C@]2(O)C=C(Cl)C(=O)[C@@](Cl)([C@H]2OC)[C@H]1O [GYMNASTATIN F],0.13
4,CCCCCC[C@@H](C)/C=C(C)/C=C/C(=O)N[C@H]1C[C@]2(O)[C@H]3O[C@H]3C(=O)[C@](Cl)([C@H]1O)[C@H]2OC [GYMNASTATIN G],0.03
5,CCCCCC[C@@H](C)/C=C(C)/C=C/C(=O)N[C@@H](Cc1ccc(O)cc1)C(=O)OC [GYMNASTATIN H],> 10

# — ChEMBL document CHEMBL1158070, “Gymnastatins F-H, cytostatic metabolites from the sponge-derived fungus Gymnascella dankaliensis” (2006)
